# Earlier results, collected in publication PMC8468386, “Rapid Identification of Potential Drug Candidates from Multi-Million Compounds’ Repositories. Combination of 2D Similarity Search with 3D Ligand/Structure Based Methods and In Vitro Screening” (Molecules, 2021).
# Key:
# [1] = tested on: Complement Component C1s; set-up: method as in PMID 31600984; conditions: C1s inhibitors
# [2] = tested on: PDE5; set-up: method as in PMID 21947759; conditions: PDE5 inhibitor first round hit compounds
SMILES,IC50 [1],IC50 [2]
Cc1sc2nc(-c3ccco3)oc(=O)c2c1C [#17],549 nM,
O=c1nc(-c2cccs2)oc2cc(Cl)ccc12 [#21],241 nM,
CCc1ccccc1OCc1nc2ccc(S(=O)(=O)N3CCOCC3)cc2[nH]1 [compound 1],,3650 nM
Cn1c(=O)c2c(nc(Oc3cccc(C=NO)c3)n2Cc2ccccc2Cl)n(C)c1=O [compound 2],,1990 nM
COC(=O)c1sccc1NC(=O)N1CCc2c([nH]c3ccccc23)C1c1ccc(OC)cc1 (stereo not drawn) [compound 4],,190 nM
COc1ccc(C2c3c(n(C)c4ccccc34)C(=O)N2CC(=O)N2CCN(c3ncccn3)CC2)cc1 (stereo not drawn) [compound 5],,6740 nM
